The source of these data is US9012435B2, “Glucocorticoids attached to nitrate esters via an aromatic linker in position 21 and their use in ophthalmology” (Nicox S.A., priority 2008, dated 2015).

One series concerns TNFα. Briefly: TNFα content in aqueous humor (ELISA), ET-1 induced ischemia. It is filed as in vivo, rabbit. The following applies: ET-1 treated rabbits; 0.5 mg (equivalent)/eye IVT. How it is done: (§1) Aqueous humor samples were withdrawn from both anterior and posterior chamber fluids of each eye before ET-1 administration (T0), before the administration of Compound (1) or fluorocinolone acetonide (T2), and at the end of treatments (T6). The same volume of saline were reintroduced every time. The aqueous humor samples were immediately frozen at −80° C. until use.
(§2) Tumor necrosis factor (TNFα) and interleukin 6 (IL-6) were determined in aqueous humor with a commercial kit using an ELISA method (Amersham Pharmacia Biotech). The minimum detectable concentrations were 0.10 pg/ml for IL-6 and TNFα. The interassay coefficient of variation was 0.7% for all assays.

For the next series, the system named is ophthalmic artery. Briefly: Ocular haemodynamics (Color Doppler Imaging, Pourcelot Resistance Index) in ET-1 induced ischemia. It is filed as in vivo, rabbit. The protocol:
Haemodynamic evaluations were performed using an eco-color-doppler DynaView TM II SSD-1700 (Aloka Holding Europe AG, Milan, Italy). All animals underwent Color Doppler Imaging (CDI) investigation before ET-1 injection (T0), before the start of drug instillation (T2) and at the end of the drug treatment (T6). Special attention was devoted to the evaluation of ophthalmic and ciliary artery circulation. Blood flow velocities were measured for each vessel and the Pourcelot Resistance Index (RI) was calculated (Galassi F. et al., Acta Opht. Scand Suppl. (2000) 37-38).

In a further series the test system is VEGF. Briefly: VEGF content in aqueous humor, ET-1 induced ischemia. It is filed as in vivo, rabbit. The following applies: ET-1 treated rabbits; 0.5 mg (equivalent)/eye IVT.
In series [1] the test system is New Zealand White rabbits. The series can be described thus: Intraocular pressure in endothelin-1 (ET-1) induced ischemia.
Description: Twenty adult male New Zealand Albino rabbits weighing 2-2.5 Kg were used for the experiments. The animals were divided in two groups for the specific treatment chosen. […] The rabbits were kept in individual cages, food and water was provided ad libitum. The animals were maintained on a 12-12 h light/dark cycle in a temperature controlled room (22°-23° C.).
Ischemia model of optic injury was obtained throughout by injection, twice a week, for 6 weeks, of endothelin-1 (ET-1) 250 nM, 500 μl of sterile saline, into the posterior vitreous body of both eyes, using a lachrymal cannula, under general anesthesia produced by tiletamine plus zolazepam (Zoletil 100, 0.05 mg/kg) plus xilazine (Xilor 2%, 0.05 ml/kg) i.m.
Fluocinolone acetonide (FC) (0.5 mg/eye in 100 μl of vehicle) or Compound (1) (0.5 mg equivalent/eye in 100 μl of vehicle) were instilled intravitreally (IVT) two weeks after the start of ET-1 treatment (T2), in one eyes, the same volume of vehicle was instilled in the other eye.
Intraocular pressure (TOP) was measured twice a using a Tono-Pen XL (Medtronic Solan. USA) as described by Maren's group (Exp. Eye Res. (1992) 55: 73-79; Exp. Eye Res. (1993) 57: 67-78) with a two-point standard pressure measurement.
Series [2] concerns VEGF-induced leakage rat model. The series can be described thus: VEGF-induced retinal vascular leakage rat model (Evans blue). The settings on record: 25 μg/eye intravitreal, VEGF 100 ng/eye, 18 hours after injection. It is filed as in vivo. The protocol: Pupils were dilated with 1% topical cyclopentolate hydrochloride to see the needle to guide the intravitreal injection. Recombinant rat vascular endothelial growth factor (VEGF; 100 ng/eye) or VEGF at 100 ng/eye plus test compounds were prepared in 0.5% carboxymethyl cellulose (CMC) in sterile saline and was injected into the vitreous with a 30-gauge needle (Xu, Q., et al. Invest. Ophthalmol. Vis. Sci., 42:789-794, 2001). The compounds of the invention were compared to corresponding steroid cores at equimolar doses. […] Control animals received vehicle. Compound (18) was similarly dosed alongside triamcinolone acetonide for comparison.
Retinal vascular leakage was measured as described previously (Xu, Q., et al. Invest. Ophthalmol. Vis. Sci., 42:789-794, 2001). After about 18 hours post injection of test compounds, rats were anesthetized with ketamine (80 mg/kg) and xylazine (4 mg/kg) IP. Then 45 mg/kg Evans blue (EB) was injected into the jugular vein. The dye was allowed to circulate for 2 hours. The chest cavity was opened and rats then perfused with 1% formalin in 0.5 M citrate buffer (pH 3.5, 37° C.) through the left ventricle. Retinas were carefully dissected from enucleated eyes, placed in pre-weighed Eppendorf tubes, dried in speed vacuum overnight and dry weights recorded. Evans blue was extracted by incubating each retina in 120 μl formamide for 18 hours at 70° C., centrifuged for 2 hours at 6000 rpm. Absorbance of 60 μl of extract was measured at 620 nm and background absorbance was determined at 740 nm. Net absorbance was calculated by subtracting the background 740 nm from that at 620 nm. Measurement of a standard curve of Evans blue in formamide was also done and Evans blue leakage expressed as μl/g/h was calculated as shown below: [EB(ng/ml)×120 (μl)×1000]/[dry weight retina (mg)×circulation time (h)×plasma EB(ng/ml)×100]

The subject of a further series is Brown Norway rats. The series can be described thus: Steroid-induced intraocular pressure (IOP) elevation in rats after intravitreal injection. The settings on record: for IOP increase: one week after injection, baseline 18 mm Hg.
Another series has as its system IL-6. The series can be described thus: IL-6 content in aqueous humor (ELISA), ET-1 induced ischemia. It is filed as in vivo, rabbit. The settings on record: ET-1 treated rabbits; 0.5 mg (equivalent)/eye IVT. The protocol:
as §1, §2

Series [3] relates to isolated rabbit thoracic aorta preparations. The series can be described thus: Assay on vascular tone (vasorelaxation of methoxamine-precontracted aortic rings). The following applies: rabbit aortic rings precontracted with methoxamine 3 μM. How it is done:
The ability of the compounds of the invention to induce vasorelaxation in comparison to precursor compounds was tested in vitro in isolated rabbit thoracic aorta preparations (Wanstall J. C. et al., Br. J. Pharmacol., 134:463-472, 2001). Male New Zealand rabbits (1,8-2 Kg) were used. The animals were anaesthetized with sodium thiopental (50 mg/kg, iv), sacrificed by exsanguinations and then the thorax was opened and the aorta dissected. The aortas were placed immediately in Krebs-HEPES buffer (pH 7.4; composition mM: NaCl 130.0, Kcl 3.7, […] 14.9, KH2PO4 1.2, MgSO4.7H2O 1.2, Glucose 11.0, HEPES 10.0, CaCl2.2H2O 1.6) and cut into ring segments (4-5 mm in length). Each ring was placed in a 5 ml tissue bath filled with Krebs-HEPES buffer (37° C.) aerated with 95% O2 and 5% CO2 and was then attached to a force transducer (Grass FT03), connected to a BIOPAC MP150 System for measurement of the isometric tension^2. The preparations were allowed to equilibrate for 1 h at a resting tension of 2 g with changes of the buffer every 15 minutes and then stimulated by exposure to 90 mM KCl (3 times) with intervening washings. After equilibration, the rings were precontracted submaximally with methoxamine (3 μM) and, when the contraction reach a steady state a cumulative concentration-response curve to the test compounds was obtained. The time intervals between doses were based on the time needed to reach a full a steady state response.
Responses to test compounds were expressed as a percentage of residual contraction and plotted against concentration of test compound. EC50 values (where EC50 is the concentration producing 50% of the maximum relaxation to the test compound) were interpolated from these plots.

A further series relates to retinal tissue. The series can be described thus: Retina protection: morphological analysis, ET-1 induced ischemia. It is filed as in vivo, rabbit. The settings on record: long term ET-1 treatment; 0.5 mg (equivalent)/eye IVT. The protocol:
The eyes of each animal was enucleated, cornea and crystalline were removed and the eyes was paraformaldehyde-fixed. Then samples were dehydrated with increasing alcohol concentration (50°-75°-95°-100°). After 95° alcohol treatment, the eyes were divided into two parts following a longitudinal plain from cornea to insertion of optical nerve. Thus the samples were paraffin-embedded. Section 8 μm thick were stained with Haematoxylin-Eosin. Microscopical fields were registered by digitizing camera applied a light microscope with a 20× and 40× objective. On the digitized images was performed a morphological analysis of retinal tissue.

Series [4] relates to New Zealand White rabbits. Briefly: Electroretinogram (ERG) in ET-1 induced ischemia. The settings on record: after ET-1 treatment; 0.5 mg (equivalent)/eye IVT.
Description: Twenty adult male New Zealand Albino rabbits weighing 2-2.5 Kg were used for the experiments. The animals were divided in two groups for the specific treatment chosen. The experimental procedures were conform to those of the Association for Research in Vision and Ophthalmology Resolution on the use of animals and in agreement with the Good Laboratory Practice for the use of animals and were conducted upon authorization of Italian regulation on protection of animals used for experimental and other scientific purpose (DM 116/1992) as well as with the European Union Regulations (OJ of ECL 358/1, Dec. 12, 1986). The rabbits were kept in individual cages, food and water was provided ad libitum. […]
The Electroretinogram (ERG) was performed in basal condition (T0), before the start of drug treatment (T2) and at the end of drug treatment (T6). […] The eyes were dilated by topical application of tropicamide (1%), adapted to darkness for at least 2 hours, and standard ERGs recorded in both eyes using corneal electrodes. […] The ERG signals were recorded using Retimax (CSO, Florence, Italy). The dark-adapted scotopic response (rod response) and scotopic flash response (photopic erg cone), were recorded. […] An average of three separate ERGs was determined for each eye. The amplitude (uV) of a- and b-waves were calculated for each step. […]

Excerpt for Brown Norway rats: Male Brown Norway rats (250-275 g; Charles River laboratory) were acclimated for a week before IOP measurements. Baseline IOP measurements with Tonolab Tonometer (Tiolat Inc) were done in conscious rats (Pease, M. E., et al J. Glaucoma, 15:512-519, 2006) before intravitreal injection of test compounds. Then the rats were anesthetized with isoflurane inhalation and a drop of 0.5% tetracaine was topically applied on the eyes. Pupils were dilated with 1% topical cyclopentolate hydrochloride and 2.5% phenylephrine HCl to see the needle to aim the intravitreal injection of test compounds. […] For example, to compare to fluocinolone acetonide at both 25 and 50 μg/eye, compound (1) was dosed at 42.4 and 84.7 μg/eye, respectively. The des-nitro analog of compound (1) was dosed at 39.1 μg/eye (equivalent for 25 μg FC). Control animals received vehicle.
Five measurements were averaged for each time point. IOP measurements were taken at one and two weeks after intravitreal injection of test compounds.

With `CC1(C)O[C@@H]2C[C@H]3[C@@H]4C[C@H](F)C5=CC(=O)C=C[C@]5(C)[C@@]4(F)[C@@H](O)C[C@]3(C)[C@]2(C(=O)CO)O1` [FC, Fluocinolone acetonide], in the series with TNFα, the “TNFα content in aqueous humor” value is 20.76 ± 1.74 pg/mL. For the same compound, the “Resistence Index” value in the series with ophthalmic artery (After 2 weeks (before drug instillation, T2)) came out at 0.45 ± 0.06; in the series on ophthalmic artery (After 6 weeks (end of drug treatment), 0.5 mg (equivalent)/eye IVT), 0.60 ± 0.04; in the series on ophthalmic artery (Basal), 0.45 ± 0.06. Also, the “VEGF content in aqueous humor” value with VEGF was found to be 114.58 ± 5.61 pg/mL. For the same compound, the IOP is 13.00 ± 2.83 mmHG in series [1] (ET-1, 0.5 mg (equivalent)/eye IVT given at T2); 15.50 ± 0.71 mmHG in [1] (I week, 0.5 mg (equivalent)/eye IVT, ET-1 ischemia); 19.00 ± 0.00 mmHG in [1] (II week, 0.5 mg (equivalent)/eye IVT, ET-1 ischemia); 19.00 ± 1.41 mmHG in series [1] (III week, 0.5 mg (equivalent)/eye IVT, ET-1 ischemia); 20.80 ± 0.71 mmHG in series [1] (IV week, 0.5 mg (equivalent)/eye IVT, ET-1 ischemia); 22.20 ± 0.00 mmHG in [1] (V week, 0.5 mg (equivalent)/eye IVT, ET-1 ischemia). In addition, the IOP came to 21.10 ± 0.00 mmHG in series [1] (VI week, 0.5 mg (equivalent)/eye IVT, ET-1 ischemia) and 13.50 ± 0.17 mmHG in series [1] (basal, 0.5 mg (equivalent)/eye IVT given at T2). Besides, the “inhibition of VEGF-induced leakage” value in [2] amounted to 86.1%. The “IOP compared to compound (1) at 42.4 μg/eye (FIG. 4)” value in the series with Brown Norway rats (25 μg/eye intravitreal) was “increase in IOP”. Also, the IOP increase with Brown Norway rats (25 μg/eye intravitreal) worked out at 4 mm Hg; in the series on Brown Norway rats (50 μg/eye intravitreal), 3 mm Hg. In the series on Brown Norway rats (25 and 50 μg/eye intravitreal, two weeks after injection), the “IOP increase after two weeks” value was “maintained”. Besides, the “IL6 content in aqueous humor” value in the series with IL-6 stood at 16.82 ± 0.98 pg/mL. In series [3], the “EC50 (concentration producing 50% of the maximum relaxation)” value is on record as “no effect”. For the same compound, the “ET-1 induced morphological changes of retinal tissue” value in the series with retinal tissue is given as “not effective”. In addition, the “Photopic erg cone (amplitude)” value in series [4] is 136.34 ± 11.98 μV.
